Measurements taken from US6303596A, “Use of taurolidine for treatment of leukemias” (priority 2000, dated 2001).

How the values were obtained:
Type in all cases: cell-based, human
MM6 cells = test: growth rate after taurolidine treatment, MM6
Procedure: FIG. 4A and FIG. 4B are graphs depicting cell viability and growth rates following taurolidine treatment as determined by assay procedures. MM6 cells were treated with taurolidine as described in FIG. 3. After aliquots were collected for the lactate dehydrogenase (LDH) assay, the remainder of the culture was rinsed in Hank's balanced salt solution (HBSS) and resuspended in RPMI+10% BCS without taurolidine. Counts of trypan blue-negative cells represented in FIG. 4A and total cell number represented in FIG. 4B were recorded daily thereafter (with the measurement at Day 1 being made immediately after the four hour taurolidine treatment). […]
FIGS. 5A and 5B depict cell viability and growth rates for MM6 cell line following taurolidine treatment, in terms of % trypan blue negative cells and % cell number, respectively. […] Counts of trypan blue-negative cells (FIG. 5A), and total cell number (FIG. 5B), were recorded daily thereafter (with the measurement at Day 1 being made immediately after the 4 hour taurolidine treatment). […] Doubling times were determined under each condition, and expressed as a percentage of the rate of doubling of untreated cells. […]
In these experiments, integrity of cell membranes following taurolidine treatment was assessed by exclusion of trypan blue and by measuring the release of LDH in MM6, K-562, HL-60, and REH cells. […]

tissue factor (TF) = test: LPS-induced tissue factor (TF) expression in MM6 cells, ELISA; settings: for inhibition of LPS-induced TF expression: 4 h
Procedure: FIG. 2A represents MM6 cells; FIG. 2B represents PBMC. The cells were induced with LPS (hatched bars: 100 ng/ml LPS in RPMI supplemented with 10% BCS (RPMI+10% BCS); solid bars: 10 ng/ml in AIM-V+0.01% BCS) in the presence of varying concentrations of taurolidine,or with a dilution of the vehicle equivalent to that given to cells receiving 100 μg/ml taurolidine. After four hours, cells were collected and lysates were prepared for TF ELISA. Data are expressed as percent of TF antigen measured in cells treated with LPS alone (no taurolidine or vehicle). Experiments were performed with duplicate samples and were repeated at least three times. Values shown are mean±SEM of all experiments.
All cells were cultured in a 5% CO2 atmosphere at 37° C. MM6 cells were grown in RPMI supplemented with 10% BCS, 2 mM L-glutamine, and 50 μg/ml gentamicin (RPMI+10% BCS). In some experiments, MM6 cells were rinsed once with HBSS without Ca^++ or Mg^++ and once with AIM-V before finally being resuspended in AIM-V supplemented with 0.01% BCS (AIM-V+0.01% BCS). […] AIM-V was supplemented with a low amount of BCS (0.01%) in order to provide a source of LPS-binding protein, which enhances the response of monocytic cells to LPS. […] HL-60, REH, and Jurkat were cultured in RPMI supplemented with 10% heat inactivated fetal bovine serum (FBS), 2 mM L-glutamine, and 50 μg/ml gentamicin. ECV304 were cultured in M199 supplemented with 10% FBS, mM L-glutamine, and 50 μg/ml gentamicin. GM5387 was cultured in MEM supplemented with 20% FBS, 2 mM L-glutamine, and 50 μg/ml gentamicin.
For induction of TF or TNFα expression, MM6 cells or PBMC were cultured either in RPMI supplemented with 10% BCS or in AIM-V+0.01% BCS, and stimulated by adding LPS to final concentrations of 10 to 100 ng/ml. […] Except as noted, taurolidine and LPS were added to the cell cultures simultaneously. For TF determination, cells and culture media together were treated by adding Triton X-100 (1% final) and EDTA (7 mmol/L final), and the resulting lysates assayed by ELISA. […] For TNFα determination, cells were removed by centrifugation for 5 min at 250×g, and the supernatants were assayed by ELISA.

GM5387 (fibroblasts) = test: growth rate (proliferation) after taurolidine treatment, GM5387; settings: GM5387, 50 and 100 μg/ml taurolidine
Procedure: FIGS. 11A and 11B depict cell viability and growth rates for GM5387 cell line following taurolidine treatment, in terms of % trypan blue negative cells and % cell number, respectively. Cells were treated with various concentrations of taurolidine for 4 hours in AIM-V+0.01% BCS. After aliquots were collected for LDH assay, the remainder of the culture was rinsed in HBSS and resuspended in RPMI+10% BCS without taurolidine. Counts of trypan blue-negative cells (FIG. 11A), and total cell number (FIG. 11B), were recorded daily thereafter (with the measurement at Day 1 being made immediately after the 4 hour taurolidine treatment). Conditions were: no treatment (open circles); 25 μg/ml taurolidine (closed circles); 50 μg/ml taurolidine (open squares); 100 μg/ml taurolidine (closed squares); and vehicle alone (closed triangles). Doubling times were determined under each condition, and expressed as a percentage of the rate of doubling of untreated cells. These values are located to the right of the growth curves in (FIG. 11B). […]
HL-60 cells treated with 50 μl taurolidine. In these samples, LDH present in the culture medium was 8.3±2.3% of that released by completely lysed cells, compared with 2.3±0.8% measured in control cultures. […] After 4 hour treatment, cells were rinsed and returned to growth medium and monitored for viability and growth over the following 3 days. […]

O=S1(=O)CCN(CN2CCS(=O)(=O)NC2)CN1 [taurolidine, 4,4'-methylenebis(perhydro-1,2,4-thiadiazin 1,1-dioxide)]
growth rate after return to growth medium (MM6 cells; MM6, 25 μg/ml taurolidine for 4 h): growth rates similar to that observed with untreated cells
growth after return to growth medium (MM6 cells; MM6, 50 μg/ml taurolidine for 4 h): failed to grow
inhibition of LPS-induced TF expression (tissue factor (TF); MM6, taurolidine 50 μg/ml or higher): completely blocked
inhibition of LPS-induced TF expression (tissue factor (TF); MM6, taurolidine 10 or 25 μg/ml): little or no effect
induction of TF expression (summary) (tissue factor (TF); PBMC, MM6 and granulocytes, LPS-induced): blocked
proliferation after treatment (GM5387 (fibroblasts)): inhibited proliferation
